Measurements taken from paper PMC10204553, “Identification of the Binding Epitope of an Anti-Mouse CCR6 Monoclonal Antibody (C6Mab-13) Using 1× Alanine Scanning” (Antibodies, 2023).

What was measured:
C6Mab-13 [1] = experiment: ELISA of C6Mab-13 with immobilized alanine-substituted mCCR6 peptides; assay type: binding, rat; settings: for binding of C6Mab-13 in ELISA (in words): ELISA with alanine-substituted peptides, Figure 1A; for C6Mab-13 Reactivity: ELISA, peptide immobilized at 10 µg/mL, 30 min 37 °C, C6Mab-13 10 µg/mL, OD at 655 nm
Description: Synthesized mCCR6 peptides were immobilized on Nunc Maxisorp 96-well immunoplates (Thermo Fisher Scientific Inc., Waltham, MA, USA) at 10 µg/mL for 30 min at 37 °C. After being washed with phosphate-buffered saline (PBS) containing 0.05% Tween20 (PBST; Nacalai Tesque, Inc., Kyoto, Japan), the wells were blocked with 1% bovine serum albumin (BSA)-containing PBST for 30 min at 37 °C. The plates were incubated with 10 µg/mL of C6Mab-13 for 30 min at 37 °C followed by peroxidase-conjugated anti-rat immunoglobulins (1:20,000 diluted; Sigma-Aldrich Corp.) for 30 min at 37 °C. Enzymatic reactions were conducted at room temperature using the ELISA POD Substrate TMB Kit (Nacalai Tesque, Inc.). Optical density was measured at 655 nm using an iMark microplate reader (Bio-Rad Laboratories, Inc., Berkeley, CA, USA).
Figure 1 Determination of the C6Mab-13 epitope by ELISA using alanine-substituted peptides of mCCR6. (A) Synthesized peptides of mCCR6 (10 µg/mL) were immobilized on immunoplates for 30 min at 37 °C. The plates were incubated with 10 µg/mL of C6Mab-13, followed by treatment with peroxidase-conjugated anti-rat immunoglobulins. Optical density was measured at 655 nm (OD655) using a microplate reader. (B) The schematic illustration of mCCR6 and the C6Mab-13 epitope. The C6Mab-13 epitope of mCCR6 comprises Asp11 from ELISA experiments.

C6Mab-13 [2] = experiment: Surface plasmon resonance (Biacore X100), C6Mab-13 immobilized on CM5 chip; assay type: binding, rat; settings: KD could not be calculated
Description: The dissociation constants (KD) between C6Mab-13 and the epitope region peptides were measured using SPR. C6Mab-13 was immobilized on the CM5 sensor chip according to the manufacturer’s protocol (Cytiva, Marlborough, MA, USA). In summary, C6Mab-13 was diluted to 10 μg/mL by an acetate buffer (pH 4.0; Cytiva) and immobilized using an amine-coupling reaction. The surface of flow cell 2 of the CM5 sensor chip was treated with 1-ethyl-3-(3-dimethylaminopropyl)-carbodiimide and N-hydroxysuccinimide (NHS), followed by an injection of C6Mab-13. The unreacted NHS-ester was blocked with ethanolamine after C6Mab-13 immobilization. The KD between C6Mab-13 and mCCR6 peptides (50, 25, 12.5, 6.25, and 3.13 µM) were measured using Biacore X100 (Cytiva) at 25 °C. The buffer was filtrated with PBS containing 0.05% (v/v) Tween 20 and 0.24% (v/v) dimethyl sulfoxide (FUJIFILM Wako Pure Chemical Corporation, Osaka, Japan). The single-cycle kinetics method was used to measure the binding signals. The data were analyzed using 1:1 binding kinetics to determine the association rate constant (ka), dissociation rate constant (kd), and KD using BIAevaluation software (Cytiva).

| binding of C6Mab-13 in ELISA (in words) (C6Mab-13 [1]) | binding to C6Mab-13 in SPR analysis (in words) (C6Mab-13 [2]) | Sequence | C6Mab-13 Reactivity (C6Mab-13 [1]) |
| --- | --- | --- | --- |
| bound | lack of binding | MNSTESYFATDDYDNTEYYS [G9A, 1× alanine-substituted mCCR6 1–20 peptide] | +++ (OD655 ≧ 0.3) |
| did not react | lack of binding | MNSTESYFGTADYDNTEYYS [D11A, 1× alanine-substituted mCCR6 1–20 peptide] | - (OD655 < 0.1) |
